Assay results reported in US10501516B2, “Peptide compound” (TAKEDA PHARMACEUTICAL COMPANY LIMITED, priority 2016, dated 2019).
Square brackets hold non-standard residues; d marks the D form. Side chains are listed from the residue outwards. Peptide text beside a SMILES is read from it. * marks the point of attachment. C18 diacid = O=C(O)CCCCCCCCCCCCCCCCC(=O)*; NMeY = CN[C@@H](Cc1ccc(O)cc1)C(=O)O; Palmitoyl = CCCCCCCCCCCCCCCC(=O)*; αMeF = C[C@](N)(Cc1ccccc1)C(=O)O; Iva = CC[C@](C)(N)C(=O)O; Aib = CC(C)(N)C(=O)O

Test system: male C57BL/6J mouse
Test: Evaluation of feeding suppressive action in mice
Type: in vivo
Conditions: 30 nmol/kg s.c. once a day for 3 days; 3-days cumulative food consumption vs solvent control
Protocol: The feeding suppressive activity of a test compound was examined by the method described below.
The test compound was dissolved at a concentration of 30 or 100 nmol/2 mL in a solvent (10% DMSO-containing physiological saline). The test compound solution was subcutaneously administered at a dose of 2 mL/kg to the back of each male C57BL/6J mouse at 8-9 weeks of age (20-26° C., allowed to take food and water ad libitum; raised in the 12-hour bright-12-hour dark cycle). The administration was performed once a day for 3 days. After the administration, the mouse was individually raised in a rearing cage, and given previously weighed food; food consumption for 3 days after the start of administration was measured. The food consumption was calculated by subtracting the amount of remaining food from the weight of the food given on the day of the start of administration. When the food consumption of a control group receiving administration of the solvent alone was regarded as a suppression rate of 0%, the feeding suppressive activity of each test compound was evaluated on the basis of 3-days cumulative food consumption after the start of administration. The food intake suppression rate (%) of the test compound was defined as (Food consumption of the control group−Food consumption of the test compound-administered group)/Food consumption of the control group×100.

SMILES: CCCCCCCCCCCCCCCC(=O)NCC(=O)NCC(=O)NCC(=O)NCC(=O)NCCCC[C@H](NC(=O)[C@H](CC(=O)O)NC(=O)[C@H](CO)NC(=O)[C@@H](NC(=O)[C@](C)(Cc1ccccc1)NC(=O)[C@@H](NC(=O)CNC(=O)[C@H](CCC(=O)O)NC(=O)C(C)(C)NC(=O)[C@H](Cc1ccc(O)cc1)NC)[C@@H](C)O)[C@@H](C)O)C(=O)N[C@@H](CO)C(=O)N[C@@H](CCCCN)C(=O)NC(C)(C)C(=O)N[C@@H](CC(C)C)C(=O)N[C@@H](CC(=O)O)C(=O)N[C@@H](CCCCN)C(=O)N[C@@H](CCC(N)=O)C(=O)N[C@@H](CCCNC(=N)N)C(=O)N[C@@H](CCC(N)=O)C(=O)N[C@@](C)(CC)C(=O)N[C@@H](CCC(=O)O)C(=O)N[C@@H](Cc1ccccc1)C(=O)N[C@H](C(=O)N[C@@H](CCCNC(=N)N)C(=O)N[C@@H](Cc1c[nH]cn1)C(=O)N[C@@H](CC(C)C)C(=O)N[C@@H](CC(C)C)C(=O)N[C@@H](CC(N)=O)C(=O)N[C@@H](CCCCN)C(=O)NC(C)(C)C(=O)N[C@H](C(=O)N[C@@H](CCCNC(=N)N)C(=O)N[C@@H](CCC(N)=O)C(=O)N[C@@H](CCCNC(=N)N)C(=O)N[C@@H](Cc1ccc(O)cc1)C(N)=O)[C@@H](C)O)C(C)C [Example 25] (H-[NMeY][Aib]EGT[αMeF]TSDK([Gly-Gly-Gly-Gly-Palmitoyl])SK[Aib]LDKQRQ[Iva]EFVRHLLNK[Aib]TRQRY-NH2)
- Rate of feeding suppression (%): −41.7%

SMILES: CCCCCCCCCCCCCCCC(=O)NCC(=O)NCC(=O)NCC(=O)NCC(=O)NCCCC[C@H](NC(=O)[C@H](CC(=O)O)NC(=O)[C@H](CO)NC(=O)[C@@H](NC(=O)[C@](C)(Cc1ccccc1)NC(=O)[C@@H](NC(=O)CNC(=O)[C@H](CCC(=O)O)NC(=O)C(C)(C)NC(=O)[C@H](Cc1ccc(O)cc1)NC)[C@@H](C)O)[C@@H](C)O)C(=O)NC(C)(C)C(=O)N[C@H](C(=O)NC(C)(C)C(=O)N[C@@H](CC(C)C)C(=O)N[C@@H](CC(=O)O)C(=O)N[C@@H](CCCCN)C(=O)N[C@@H](CCC(N)=O)C(=O)N[C@@H](C)C(=O)N[C@@H](CCC(N)=O)C(=O)N[C@@](C)(CC)C(=O)N[C@@H](CCC(=O)O)C(=O)N[C@@H](Cc1ccccc1)C(=O)N[C@H](C(=O)N[C@@H](CCCNC(=N)N)C(=O)N[C@@H](Cc1c[nH]cn1)C(=O)N[C@@H](CC(C)C)C(=O)N[C@@H](CC(C)C)C(=O)N[C@@H](CC(N)=O)C(=O)N[C@@H](CCCCN)C(=O)NC(C)(C)C(=O)N[C@H](C(=O)N[C@@H](CCCNC(=N)N)C(=O)N[C@@H](CCC(N)=O)C(=O)N[C@@H](CCCNC(=N)N)C(=O)N[C@@H](Cc1ccc(O)cc1)C(N)=O)[C@@H](C)O)C(C)C)[C@@H](C)CC [Example 29] (H-[NMeY][Aib]EGT[αMeF]TSDK([Gly-Gly-Gly-Gly-Palmitoyl])[Aib]I[Aib]LDKQAQ[Iva]EFVRHLLNK[Aib]TRQRY-NH2)
- Rate of feeding suppression (%): −43.7%

SMILES: CCCCCCCCCCCCCCCC(=O)NCC(=O)NCC(=O)NCC(=O)NCC(=O)NCCCC[C@H](NC(=O)[C@H](CC(=O)O)NC(=O)[C@H](CO)NC(=O)[C@@H](NC(=O)[C@](C)(Cc1ccccc1)NC(=O)[C@@H](NC(=O)CNC(=O)[C@H](CCC(=O)O)NC(=O)C(C)(C)NC(=O)[C@@H](N)Cc1ccc(O)cc1)[C@@H](C)O)[C@@H](C)O)C(=O)NC(C)(C)C(=O)N[C@H](C(=O)NC(C)(C)C(=O)N[C@@H](CC(C)C)C(=O)N[C@@H](CCC(=O)O)C(=O)N[C@@H](CCCCN)C(=O)N[C@@H](CCC(N)=O)C(=O)N[C@@H](CCCNC(=N)N)C(=O)N[C@@H](CCC(N)=O)C(=O)N[C@@](C)(CC)C(=O)N[C@@H](CCC(=O)O)C(=O)N[C@@H](Cc1ccccc1)C(=O)N[C@H](C(=O)N[C@@H](CCCNC(=N)N)C(=O)N[C@@H](Cc1c[nH]cn1)C(=O)N[C@@H](CC(C)C)C(=O)N[C@@H](CC(C)C)C(=O)N[C@@H](CC(N)=O)C(=O)N[C@@H](CCCCN)C(=O)NC(C)(C)C(=O)N[C@H](C(=O)N[C@@H](CCCNC(=N)N)C(=O)N[C@@H](CCC(N)=O)C(=O)N[C@@H](CCCNC(=N)N)C(=O)N[C@@H](Cc1ccc(O)cc1)C(N)=O)[C@@H](C)O)C(C)C)[C@@H](C)CC [Example 31] (H-Y[Aib]EGT[αMeF]TSDK([Gly-Gly-Gly-Gly-Palmitoyl])[Aib]I[Aib]LEKQRQ[Iva]EFVRHLLNK[Aib]TRQRY-NH2)
- Rate of feeding suppression (%): −56.8%

SMILES: CC[C@H](C)[C@H](NC(=O)C(C)(C)NC(=O)[C@H](CCCCNC(=O)CNC(=O)CNC(=O)CNC(=O)CNC(=O)CCCCCCCCCCCCCCCCC(=O)O)NC(=O)[C@H](CC(=O)O)NC(=O)[C@H](CO)NC(=O)[C@@H](NC(=O)[C@](C)(Cc1ccccc1)NC(=O)[C@@H](NC(=O)CNC(=O)[C@H](CCC(=O)O)NC(=O)C(C)(C)NC(=O)[C@@H](N)Cc1ccc(O)cc1)[C@@H](C)O)[C@@H](C)O)C(=O)NC(C)(C)C(=O)N[C@@H](CC(C)C)C(=O)N[C@@H](CCC(=O)O)C(=O)N[C@@H](CCCCN)C(=O)N[C@@H](CCC(N)=O)C(=O)N[C@@H](CCCNC(=N)N)C(=O)N[C@@H](CCC(N)=O)C(=O)N[C@@](C)(CC)C(=O)N[C@@H](CCC(=O)O)C(=O)N[C@@H](Cc1ccccc1)C(=O)N[C@H](C(=O)N[C@@H](CCCNC(=N)N)C(=O)N[C@@H](Cc1c[nH]cn1)C(=O)N[C@@H](CC(C)C)C(=O)N[C@@H](CC(C)C)C(=O)N[C@@H](CC(N)=O)C(=O)N[C@@H](CCCCN)C(=O)NC(C)(C)C(=O)N[C@H](C(=O)N[C@@H](CCCNC(=N)N)C(=O)N[C@@H](CCC(N)=O)C(=O)N[C@@H](CCCNC(=N)N)C(=O)N[C@@H](Cc1ccc(O)cc1)C(N)=O)[C@@H](C)O)C(C)C [Example 32] (H-Y[Aib]EGT[αMeF]TSDK([Gly-Gly-Gly-Gly-C18 diacid])[Aib]I[Aib]LEKQRQ[Iva]EFVRHLLNK[Aib]TRQRY-NH2)
- Rate of feeding suppression (%): −51.0%

SMILES: CCCCCCCCCCCCCCCC(=O)NCC(=O)NCC(=O)NCC(=O)NCC(=O)NCCCC[C@H](NC(=O)[C@H](CC(=O)O)NC(=O)[C@H](CO)NC(=O)[C@@H](NC(=O)[C@](C)(Cc1ccccc1)NC(=O)[C@@H](NC(=O)CNC(=O)[C@H](CCC(=O)O)NC(=O)C(C)(C)NC(=O)[C@@H](N)Cc1ccc(O)cc1)[C@@H](C)O)[C@@H](C)O)C(=O)N[C@@H](C)C(=O)N[C@H](C(=O)NC(C)(C)C(=O)N[C@@H](CC(C)C)C(=O)N[C@@H](CCC(=O)O)C(=O)N[C@@H](CCCCN)C(=O)N[C@@H](CCC(N)=O)C(=O)N[C@@H](CCCNC(=N)N)C(=O)N[C@@H](CCC(N)=O)C(=O)N[C@@](C)(CC)C(=O)N[C@@H](CCC(=O)O)C(=O)N[C@@H](Cc1ccccc1)C(=O)N[C@H](C(=O)N[C@@H](CCCNC(=N)N)C(=O)N[C@@H](Cc1c[nH]cn1)C(=O)N[C@@H](CC(C)C)C(=O)N[C@@H](CC(C)C)C(=O)N[C@@H](CC(N)=O)C(=O)N[C@@H](CCCCN)C(=O)NC(C)(C)C(=O)N[C@H](C(=O)N[C@@H](CCCNC(=N)N)C(=O)N[C@@H](CCC(N)=O)C(=O)N[C@@H](CCCNC(=N)N)C(=O)N[C@@H](Cc1ccc(O)cc1)C(N)=O)[C@@H](C)O)C(C)C)[C@@H](C)CC [Example 35] (H-Y[Aib]EGT[αMeF]TSDK([Gly-Gly-Gly-Gly-Palmitoyl])AI[Aib]LEKQRQ[Iva]EFVRHLLNK[Aib]TRQRY-NH2)
- Rate of feeding suppression (%): −52.6%

SMILES: CCCCCCCCCCCCCCCC(=O)NCC(=O)NCC(=O)NCC(=O)NCC(=O)NCCCC[C@H](NC(=O)[C@H](CC(=O)O)NC(=O)[C@H](CO)NC(=O)[C@@H](NC(=O)[C@](C)(Cc1ccccc1)NC(=O)[C@@H](NC(=O)CNC(=O)[C@H](CCC(=O)O)NC(=O)C(C)(C)NC(=O)[C@H](Cc1ccc(O)cc1)NC)[C@@H](C)O)[C@@H](C)O)C(=O)N[C@@H](C)C(=O)N[C@H](C(=O)NC(C)(C)C(=O)N[C@@H](CC(C)C)C(=O)N[C@@H](CCC(=O)O)C(=O)N[C@@H](CCCCN)C(=O)N[C@@H](CCC(N)=O)C(=O)N[C@@H](CCCNC(=N)N)C(=O)N[C@@H](CCC(N)=O)C(=O)N[C@@](C)(CC)C(=O)N[C@@H](CCC(=O)O)C(=O)N[C@@H](Cc1ccccc1)C(=O)N[C@H](C(=O)N[C@@H](CCCNC(=N)N)C(=O)N[C@@H](Cc1c[nH]cn1)C(=O)N[C@@H](CC(C)C)C(=O)N[C@@H](CC(C)C)C(=O)N[C@@H](CC(N)=O)C(=O)N[C@@H](CCCCN)C(=O)NC(C)(C)C(=O)N[C@H](C(=O)N[C@@H](CCCNC(=N)N)C(=O)N[C@@H](CCC(N)=O)C(=O)N[C@@H](CCCNC(=N)N)C(=O)N[C@@H](Cc1ccc(O)cc1)C(N)=O)[C@@H](C)O)C(C)C)[C@@H](C)CC [Example 37] (H-[NMeY][Aib]EGT[αMeF]TSDK([Gly-Gly-Gly-Gly-Palmitoyl])AI[Aib]LEKQRQ[Iva]EFVRHLLNK[Aib]TRQRY-NH2)
- Rate of feeding suppression (%): −54.9%
